Like-named read-outs stand apart in the source and are kept apart here.
Key:
HBV (genotype AeUS) = test: Test Example 2-1: anti-HBV assay in PXB-cells (fresh human hepatocytes); assay type: cell-based, hepatitis B virus; conditions: Hepatitis B virus, Hepatocyte, PXB-cells infected with HBV genotype AeUS, culture supernatant on day 32 post infection
Protocol: Using fresh human hepatocytes (PXB-cells, manufactured by PhenixBio Co., Ltd.) collected from a PXB mouse (a chimeric mouse with human hepatocytes), the anti-HBV activity of the representative compounds was evaluated in the following procedure.
(§1) The following was used as a medium:
DMEM (manufactured by Sigma)+0.25 μg/mL insulin (manufactured by Wako)+1% penicillin/streptomycin. (manufactured by Sigma)+20 mmol/L HEPES (manufactured by Sigma)+15 μg/mL L-proline (manufactured by Sigma)+50 nmol/L dexamethasone (manufactured by Sigma)+5 ng/mL EGF (manufactured by Peprotech)+0.1 mmol/L ascorbic acid 2-phosphate (manufactured by Wako)+10% FBS+2% DMSO
Each of the test compounds) was further added to the medium to prepare a test solution containing each of the test compounds at various concentrations.
(1) PXB-cells seeded at a seeding density of 2.1×10^5 cells/cm^2 in a 96-well microliter plate were incubated in a 5% CO2 incubator at 37° C. until a day on which the cells were infected.
(2) HBV (genotype AeUS) derived from a PXB mouse serum was suspended in the medium containing 4% PEG-8000, and added to the plate of (1) at about 10 copies/cell such that the PXB cells were infected (100 μL/well), and the plate was incubated in a 5% CO2 incubator at 37° C. for 1 day.
(3) The culture supernatant on day 1 post infection was removed and the cells were washed three times with DMEM containing 10% FBS and 1% penicillin/streptomycin. Then, the medium was added to the plate (100 μL/well) and the plate was incubated in a 5% CO2 incubator at 37° C. for 1 day.
(4) The culture supernatant on day 2 post infection was removed and the cells were washed three times with DMEM containing 10% FBS and 1% penicillin/streptomycin. Then, the medium was added to the plate (100 μL/well) and the plate was incubated in a 5% CO2 incubator at 37° C. for 5 days.
(5) The culture supernatant on day 7 post infection was removed, the medium was added to the plate (100 μL/well), and the plate was incubated in a 5% CO2 incubator at 37° C. for 5 days.
(6) The culture supernatant on day 12 post infection was removed, the medium was added to the plate (100 μL/well), and the plate was incubated in a 5% CO2 incubator at 37° C. for 5 days.
(§2) (7) The culture supernatant on day 17 post infection was removed, the test solution was added to the plate (100 μL/well), and the plate was incubated in a 5% CO2 incubator at 37° C. for 5 days. As a control without the compound added, the medium was added to the plate (100 μL/well) and the plate was incubated in a 5% CO2 incubator at 37° C. for 5 days.
as §2, with “(8)” for “(7)”, “22” for “17”
as §2, with “(9)” for “(7)”, “27” for “17”
(10) The culture supernatant on day 32 post infection was collected.
(11) The collected culture supernatant on day 32 post infection was purified with a QIAamp (registered trademark) DNA Blood Mini Kit (manufactured by QIAGEN). The amount of HBV-DNA in the obtained solution was absolutely quantified by a real-time PCR method. In addition, the amount of HBsAg in the culture supernatant was absolutely quantified by chemiluminescent enzyme immunoassay using Lumipulse (registered trademark) HBsAg-HQ (manufactured by Fujirebio Inc.). A relative viral load (%) with respect to a control without the compound added was each calculated. […]

HBV = test: Test Example 1-1: anti-HBV assay in HepG2.2.15 cells (test solution 200 μL/well); assay type: cell-based, hepatitis B virus; conditions: culture supernatant
Protocol: Using HepG2.2.15 cells (Proc. Natl. Acad. Sci. USA, 84, 1005-1009, 1987) which have an HBV genome introduced into a hepatoblastoma cell line, HepG2, and persistently produce a virus, the anti-HBV activity of the representative compounds was evaluated in the following procedure.
as §1
DMEM/F-12, GlutaMAX (manufactured by Invitrogen)+5 μg/mL insulin (manufactured by Wako)+1% penicillin/streptomycin (manufactured by Sigma)+10 mmol/L HEPES (manufactured by Sigma)+50 μmol/L hydrocortisone (manufactured by Sigma)+10% FBS
A mixture of a test compound with dimethyl sulfoxide (DMSO) was further added to the medium to obtain a final concentration of DMSO of 0.25% (v/v), and thus, test solutions containing the test compound at various concentrations were prepared. In addition, a test solution obtained by adding DMSO alone to the medium to obtain a final concentration of 0.25% (v/v) was prepared as a control without addition of a drug.
(1) The HepG2.2.15 cells were suspended in the medium to prepare a. HepG2.2.15 cell suspension at 4×10^5 cells/mL. The suspension was seeded in a 96-well microtiter plate (100 μL/well) and the plate was incubated in a 5% CO2 incubator at 37° C. for 2 days.
(2) The culture supernatant was removed and the cells were washed twice with PBS (−) (100 μL/well).
(3) The test solution (200 μL/well) was added to the plate of (2) and the plate was incubated in a 5% CO2 incubator at 37° C. for 4 days.
(4) The culture supernatant was removed, the test solution (200 μL/well) was added again to the plate, and the plate was incubated in a 5% CO2 incubator at 37° C. for 3 days.
(5) The culture supernatant was collected and treated with a mixture of Buffer AL (manufactured by QIAGEN) and Proteinase K (manufactured by Invitrogen). The amount of DNA of HBV (HBV-DNA) in the obtained solution was absolutely quantified by a real-time PCR method. In addition, HBsAg (hepatitis B surface antigen) in the culture supernatant was absolutely quantified by chemiluminescent enzyme immunoassay using Lumipulse (registered trademark) HBsAg-HQ (manufactured by Fujirebio Inc.). The relative viral load (%) of a well with the compound added to a well without the compound added was calculated. An IC50 of the compound was calculated using a FORECAST function (linear regression method) of Microsoft Office Excel 2007 by plotting the logarithm of the concentration against the relative viral load as a real number.
The IC50 of HBV-DNA was defined as a concentration (or a logarithm dilution of the culture supernatant) of the compound, in which the amount of HBV-DNA is reduced by 50% as compared a control without the compound added.
In addition, the IC50 of HBsAg was defined as a concentration (or a logarithm dilution of the culture supernatant) of the compound, in which the amount of HBsAg is reduced by 50% as compared a control without the compound added.

[1] = Hepatitis B virus, read-out: IC50 HBV-DNA
[2] = Hepatitis B virus, read-out: IC50 HBsAg

Compound | IC50 (HBV; [1]) | IC50 (HBV; [2]) | other results
COCCN(CCOC)c1nc2ccc(-n3cc(C(=O)O)c(=O)cc3-c3ccc(N4CC[C@@H](OC)C4)c(Cl)c3)cc2s1 [Example 12-1, (R)-1-(2-(bis(2-methoxyethyl)amino)benzo[d]thiazol-6-yl)-6-(3-chloro-4-(3-methoxypyrrolidin-1-yl)phenyl)-4-oxo-1,4-dihydropyridine-3-carboxylic acid] |  |  | IC50 (HBV (genotype AeUS); read-out: IC50 HBV-DNA): < 8 nM; IC50 (HBV (genotype AeUS); read-out: IC50 HBsAg): 11 nM
CCN1CCN(c2nc3ccc(-n4cc(C(=O)O)c(=O)cc4-c4ccc(N5CC[C@@H](OC)C5)cc4)cc3s2)CC1 [Example 10-4, (R)-1-(2-(4-ethylpiperazin-1-yl)benzo[d]thiazol-6-yl)-6-(4-(3-methoxypyrrolidin-1-yl)phenyl)-4-oxo-1,4-dihydropyridine-3-carboxylic acid] |  |  | IC50 (HBV (genotype AeUS); read-out: IC50 HBV-DNA): 61 nM; IC50 (HBV (genotype AeUS); read-out: IC50 HBsAg): 78 nM
Cc1nc2ccc(-n3cc(C(=O)O)c(=O)cc3-c3ccc(N4CC[C@@H](OCc5ccc(F)cc5)C4)cc3)cc2s1 [Example 8, (R)-6-(4-(3-((4-Fluorobenzyl)oxy)pyrrolidin-1-yl)phenyl)-1-(2-methylbenzo[d]thiazol-6-yl)-4-oxo-1,4-dihydropyridine-3-carboxylic acid] | 20 nM | 19 nM | 
COCCN1CCN(c2nc3ccc(-n4cc(C(=O)O)c(=O)cc4-c4ccc(N5CCCC5)cc4)cc3s2)CC1 [Example 3-14, 1-(2-(4-(2-methoxyethyl)piperazin-1-yl)benzo[d]thiazol-6-yl)-4-oxo-6-(4-(pyrrolidin-1-yl)phenyl)-1,4-dihydropyridine-3-carboxylic acid] |  |  | IC50 (HBV (genotype AeUS); read-out: IC50 HBV-DNA): 24 nM; IC50 (HBV (genotype AeUS); read-out: IC50 HBsAg): 89 nM
Cc1nc2ccc(-n3cc(C(=O)O)c(=O)cc3-c3ccc(N(C)C)cc3)cc2s1 [Example 1, 6-(4-(dimethylamino)phenyl)-1-(2-methylbenzo[d]thiazol-6-yl)-4-oxo-1,4-dihydropyridine-3-carboxylic acid] | 120 nM | 120 nM | 
O=C(O)c1cn(-c2ccc3nc(N4CCOCC4)sc3c2)c(-c2ccc(N3CCCC3)c(Br)c2)cc1=O [Example 5-2, 6-(3-bromo-4-(pyrrolidin-1-yl)phenyl)-1-(2-morpholinobenzo[d]thiazol-6-yl)-4-oxo-1,4-dihydropyridine-3-carboxylic acid] | 1.2 nM | 1.6 nM | 
O=C(O)c1cn(-c2ccc3ncsc3c2)c(-c2ccc(-c3ccc(F)cc3)s2)cc1=O [Example 14, 1-(Benzo[d]thiazol-6-yl)-6-(5-(4-fluorophenyl)thiophen-2-yl)-4-oxo-1,4-dihydropyridine-3-carboxylic acid] | 100 nM | 91 nM | 
COc1cc(-c2cc(=O)c(C(=O)O)cn2-c2ccc3nc(C)sc3c2)ccc1N1CCCC1 [Example 4-1, 6-(3-methoxy-4-(pyrrolidin-1-yl)phenyl-1)-(2-methylbenzo[d]thiazol-6-yl)-4-oxo-1,4-dihydropyridine-3-carboxylic acid] |  |  | IC50 (HBV; read-out: IC50 HBV-DNA): 18 nM; IC50 (HBV; read-out: IC50 HBsAg): 18 nM
COc1nc2ccc(-n3cc(C(=O)O)c(=O)cc3-c3ccc(N4CCCC4)cc3)cc2s1 [Example 3-5, 1-(2-methoxybenzo[d]thiazol-6-yl)-4-oxo-6-(4-(pyrrolidin-1-yl)phenyl)-1,4-dihydropyridine-3-carboxylic acid] | 4 nM | 8 nM | 
O=C(O)c1cn(-c2ccc3nc(NCc4ccccn4)sc3c2)c(-c2ccc(N3CCCC3)cc2)cc1=O [Example 3-12, 4-oxo-1-(2-((pyridin-2-ylmethyl)amino)benzo[d]thiazol-6-yl)-6-(4-(pyrrolidin-1-yl)phenyl)-1,4-dihydropyridine-3-carboxylic acid] | 2.9 nM | 2.4 nM | 
COCCN(CCOC)c1nc2ccc(-n3cc(C(=O)O)c(=O)cc3-c3ccc(N4CCCC4)cc3)cc2s1 [Example 3-6, 1-(2-(bis(2-methoxyethyl)amino)benzo[d]thiazol-6-yl)-4-oxo-6-(4-(pyrrolidin-1-yl)phenyl)-1,4-dihydropyridine-3-carboxylic acid] | 3.9 nM | 3 nM | 
CCN1CCN(c2nc3ccc(-n4cc(C(=O)O)c(=O)cc4-c4ccc(N5CCCC5)cc4)cc3s2)CC1 [Example 3-9, 1-(2-(4-ethylpiperazin-1-yl)benzo[d]thiazol-6-yl)-4-oxo-6-(4-(pyrrolidin-1-yl)phenyl)-1,4-dihydropyridine-3-carboxylic acid] | 3.5 nM | 6 nM | 
O=C(O)c1cn(-c2ccc3nc(N4CCOCC4)sc3c2)c(-c2ccc(N3CCCC3)c(Cl)c2)cc1=O [Example 6-1, 6-(3-chloro-4-(pyrrolidin-1-yl)phenyl)-1-(2-morpholinebenzo[d]thiazol-6-yl)-4-oxo-1,4-dihydropyridine-3-carboxylic acid] |  |  | IC50 (HBV; read-out: IC50 HBV-DNA): 10 nM; IC50 (HBV; read-out: IC50 HBsAg): 3.8 nM
COc1cc(-c2cc(=O)c(C(=O)O)cn2-c2ccc3nc(N4CCOCC4)sc3c2)ccc1N1CCCC1 [Example 4-2, 6-(3-methoxy-4-(pyrrolidin-1-yl)phenyl)-1-(2-morpholinobenzo[d]thiazol-6-yl)-4-oxo-1,4-dihydropyridine-3-carboxylic acid] | 10.9 nM | 5.3 nM | 

Source: patent US11161830B2, “4-pyridone compound or salt thereof, and pharmaceutical composition and formulation including same” (priority 2017, dated 2021)
